Reference: US20230212129A1, “QUINAZOLINE DERIVATIVES USEFUL AS SELECTIVE HDAC6 INHIBITORS” (AnnJi Pharmaceutical Co., Ltd., priority 2020, published 2023)

What was measured:
[1] = system: bleomycin-induced pulmonary fibrosis; test: Bleomycin-induced pulmonary fibrosis model, lung histology (H&E); assay type: in vivo, mice
Protocol: (§1) The activities of compounds COMPOUND 2 and COMPOUND 33 in preventing and/or treating pulmonary fibrosis were examined using a bleomycin-induced pulmonary fibrosis model, a model that involves deactivated bleomycin hydrolase, elevated oxidative stress, and increased inflammatory cytokines. In the prevention model, mice were administered bleomycin intratracheally an hour in prior to the first oral administration of 30 mg/kg testing compounds. The treatment continued for 21 consecutive days, and mice were sacrificed to examine histological changes of lung tissues were analyzed by H&E staining to evaluate the degree of lung fibrosis. Additionally, the HDAC6 inhibitors, COMPOUND 2 and COMPOUND 33, were tested for their effect in aiding animal recovery from lung injury and pulmonary fibrosis post injury.

[2] = system: BioMAP Fibrosis panel (REMyoF, SAEMyoF, MyoF systems); test: BioMAP Fibrosis panel cytokine/biomarker profiles; assay type: cell-based
Protocol: The HDAC6 inhibitor compounds were tested in a commercially available platform, BioMAP, for the cytokine profiles in related to tissue injuries. The BioMAP Fibrosis panel included 3 systems stimulated to model TGFβ and TNFα driven myofibroblast differentiation during chronic inflammation and wound healing in different tissue settings. Fibrotic disease of the kidney associated with end-stage renal failure was captured in the REMyoF system consisting of a co-culture of renal proximal tubule epithelial cells and adult fibroblasts. Interstitial lung diseases, including pulmonary fibrotic diseases such as idiopathic pulmonary fibrosis (IPF), was modeled by co-culturing small airway epithelial cells and adult fibroblasts in the SAEMyoF system. Both co-culture systems modeled the paracrine interaction between myofibroblasts and the proximally located epithelial cells, while the impact on fibroblasts alone was interrogated using the monoculture MyoF system. A signature BioMAP profile that is reflective of the changes in protein biomarker readouts within an individual system was generated for each testing compounds. Biomarker readouts selected for therapeutic and biological relevance were predictive for disease outcomes or specific drug effects, and was validated using agents with known clinical efficacy. Each readout was measured quantitatively by immune-based methods that detect protein (e.g., ELISA).

[3] = Oral pharmacokinetics (Table II); design: AUC: concentration or dose not given beside the values; conditions: in vivo
[4] = system: IL-6; test: IL-6 in bronchoalveolar lavage fluid, bleomycin model; assay type: in vivo, mice; conditions: prevention model, 30 mg/kg oral, 21 days; FIG. 6
Protocol: as §1, with “fibrosis.” for “fibrosis. Additionally, the HDAC6 inhibitors, COMPOUND 2 and COMPOUND 33, were tested for their effect in aiding animal recovery from lung injury and pulmonary fibrosis post injury.”

[5] = system: paclitaxel-induced peripheral neuropathy; test: Paclitaxel-induced peripheral neuropathy, Von Frey test; assay type: in vivo, Sprague-Dawley (SD) rats
Protocol: Male Sprague-Dawley (SD) rats, weighing 320±30 grams, were given paclitaxel intraperitoneally at the dose of 6 mg/kg for 5 consecutive days with a total cumulative dose of 30 mg/kg to induce chemotherapy-induced peripheral neuropathy.
Compound 2 or vehicle was administered orally once daily for 2 weeks during the weekdays (Days 8 to 12 and 15-19). Mechanical allodynia is assessed by the manual Von Frey test once per week. The animals are given 20 to 30 minutes to acclimatize prior to the testing. The paw is pressed with a series of 8 manual Von Frey monofilaments with logarithmically incremental stiffness [3.61 (0.4 g), 3.84 (0.6 g), 4.08 (1.0 g), 4.31 (2.0 g), 4.56 (4.0 g), 4.93 (8.0 g), 5.18 (15.0 g) and (26.0 g)]. The manual Von Frey monofilament was applied perpendicularly from underneath the mesh floor to the central plantar surface with sufficient force to cause a slight buckling against the paw, and held for approximately 6-8 seconds. A positive response was noted if the paw is sharply withdrawn; ambulation is considered an ambiguous response, and in such cases, the stimulus is reapplied. The 50% paw withdrawal threshold (PWT) to a static mechanical stimulus was assessed using Von Frey filament and up-and-down method.
Von Frey data were presented as mean±SEM (Standard Error of the Mean). Treatment groups were compared to the paclitaxel control using Student's T-test. A p value <0.05 is considered to represent a significant difference.

With CCc1nc2cc(F)c(/C=C/C(=O)NO)cc2c(=O)n1-c1c(C)cccc1C [Compound 2, (E)-3-(3-(2,6-dimethylphenyl)-2-ethyl-7-fluoro-4-oxo-3,4-dihydroquinazolin-6-yl)-N-hydroxyacrylamide] the “development of lung fibrosis” value ([1]; prevention model, 30 mg/kg oral, 21 consecutive days, FIG. 5) was “markedly decreased the development of lung fibrosis”, the “recovery from lung injury and pulmonary fibrosis post injury” value ([1]; treatment post injury) was “protective effect in pulmonary inflammatory response and pulmonary fibrosis” and the fibrosis-related matrix activities ([2]; BioMAP readouts) was “decreased TIMP-1, MMP-1, Collagen I, Collagen III, MMP-9”. The inflammation-related activities ([2]; BioMAP readouts) was “decreased M-CSF, VCAM-1, sIL-6, MCP-1; increased I-TAC”, the myofibroblast activation-related activities ([2]; BioMAP readouts) was “decreased αSMA, N-Cadherin” and the “tissue remodeling/wound healing activities” value ([2]; BioMAP readouts) was “decreased EGFR, tPA, uPA, bFGF, sVEGF”. For the same compound, the “activities on cytokines contributing to fibrosis” value ([2]; compared with nintedanib) was “marked activities in decreasing TNF-α, IL-1, IL-6, MMP-9, VEGF, and collagen I”, the Cmax [3] was 1150 ng/mL and the AUC ([3]; unit inferred) was 12500 ng·h/mL. For the same compound, the “IL-6 level in the BALF” value [4] was “suppressed IL-6 level in the BALF”, the “duration of effect after the dosing was stopped” value ([5]; 15 and 30 mg/kg) was no less than 14 days and the “sensitivity to the mechanical stimulation” value ([5]; 15 and 30 mg/kg, starting from study Day 14) was “significantly reduced the sensitivity”. The “pain-relief after dosing was stopped” value ([5]; FIG. 7) was “maintained for at least two weeks after dosing was stopped” and the “threshold of mean withdrawal force” value ([5]; vs vehicle, from study Day 14, oral once daily Days 8 to 12 and 15-19) was “significant increase in the threshold of mean withdrawal force”.
